Experimental data reported in paper PMC10724237, “Identification of 5-HT2A receptor signaling pathways associated with psychedelic potential” (Nature Communications, 2023).
Like-named read-outs stand apart in the source and are kept apart here.

Key:
[1] = molecular target: T1, 5-HT2A receptor (5-HT2AR) (Homo sapiens, UniProt P28223); type: cell-based
T1 construct: gene HTR2A; full-length receptor in HEK293T; co-expressed Galphaq-RLuc8/Gbeta1/Ggamma1-GFP2 for Gq dissociation; C-terminal RLuc8 fusion for beta-arrestin2 recruitment

[2] = molecular target: T2, 5-HT2B receptor (5-HT2BR) (Homo sapiens, UniProt P41595); test: Gq dissociation BRET2 in HEK293T; type: cell-based; details: partial agonist; 37 °C, 60 min
T2 construct: gene HTR2B; full-length receptor in HEK293T with Galphaq-RLuc8/Gbeta1/Ggamma1-GFP2

[3] = molecular target: T3, 5-HT2C receptor (5-HT2CR) (Homo sapiens, UniProt P28335); test: Gq dissociation BRET2 in HEK293T; type: cell-based; details: agonist; 37 °C, 60 min
T3 construct: gene HTR2C; full-length receptor in HEK293T with Galphaq-RLuc8/Gbeta1/Ggamma1-GFP2

[4] = molecular target: T1, 5-HT2A receptor (5-HT2AR); test: competition radioligand binding (NIMH PDSP); details: competitive
[5] = molecular target: T1, 5-HT2A receptor (5-HT2AR); test: Gq dissociation BRET2 in HEK293T; type: cell-based; details: 37 °C

T1 sequence (P28223 whole entry, the tested form may be a part): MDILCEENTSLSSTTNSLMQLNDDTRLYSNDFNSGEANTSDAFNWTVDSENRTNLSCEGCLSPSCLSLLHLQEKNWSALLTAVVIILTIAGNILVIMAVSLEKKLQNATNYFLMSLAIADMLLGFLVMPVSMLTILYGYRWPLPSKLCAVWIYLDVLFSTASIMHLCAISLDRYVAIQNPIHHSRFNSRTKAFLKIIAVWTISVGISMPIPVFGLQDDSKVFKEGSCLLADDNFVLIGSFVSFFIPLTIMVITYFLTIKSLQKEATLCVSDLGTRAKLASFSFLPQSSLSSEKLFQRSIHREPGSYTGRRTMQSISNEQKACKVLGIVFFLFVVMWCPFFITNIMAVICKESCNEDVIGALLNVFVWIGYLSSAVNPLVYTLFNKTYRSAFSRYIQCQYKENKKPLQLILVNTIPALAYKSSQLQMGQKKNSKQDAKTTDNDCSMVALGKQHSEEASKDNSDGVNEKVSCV
T2 sequence (P41595 whole entry): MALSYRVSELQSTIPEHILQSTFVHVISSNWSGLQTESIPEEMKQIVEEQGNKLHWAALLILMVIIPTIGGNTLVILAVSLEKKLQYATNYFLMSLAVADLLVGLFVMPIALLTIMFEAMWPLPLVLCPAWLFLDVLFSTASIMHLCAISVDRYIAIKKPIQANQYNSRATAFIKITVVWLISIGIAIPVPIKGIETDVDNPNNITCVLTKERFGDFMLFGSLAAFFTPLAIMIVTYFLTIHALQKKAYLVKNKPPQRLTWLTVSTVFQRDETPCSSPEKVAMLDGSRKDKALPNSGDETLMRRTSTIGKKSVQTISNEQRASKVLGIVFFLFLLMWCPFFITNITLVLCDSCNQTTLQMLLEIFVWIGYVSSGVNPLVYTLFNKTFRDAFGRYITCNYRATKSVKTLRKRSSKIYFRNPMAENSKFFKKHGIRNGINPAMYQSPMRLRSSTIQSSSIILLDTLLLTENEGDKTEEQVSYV
T3 sequence (P28335 33-458): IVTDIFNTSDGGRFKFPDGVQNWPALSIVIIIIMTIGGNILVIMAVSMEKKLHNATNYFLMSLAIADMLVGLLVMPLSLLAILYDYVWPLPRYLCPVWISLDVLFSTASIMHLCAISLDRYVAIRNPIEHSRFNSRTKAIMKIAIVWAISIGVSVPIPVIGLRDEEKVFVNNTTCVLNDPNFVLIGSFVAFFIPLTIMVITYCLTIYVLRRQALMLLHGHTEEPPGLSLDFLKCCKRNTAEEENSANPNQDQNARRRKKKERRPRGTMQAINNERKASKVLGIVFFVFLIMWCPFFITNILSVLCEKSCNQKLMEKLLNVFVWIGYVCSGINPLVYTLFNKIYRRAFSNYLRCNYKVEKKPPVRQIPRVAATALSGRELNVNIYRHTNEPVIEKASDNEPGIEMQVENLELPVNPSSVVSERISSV

`COc1ccc2[nH]cc(CCN(C)C)c2c1` [5-MeO-DMT, 5-methoxy-N,N-dimethyltryptamine] was tested, and the EC50 ([1]; agonist, 37 °C, 60 min) was “(E) Psilocin, (F) DMT, (G) 5-MeO-DMT”.

With `CN(C)CCc1c[nH]c2ccccc12` [DMT] the EC50 [1] was “(E) Psilocin, (F) DMT, (G) 5-MeO-DMT”.

`CN(C)CCc1c[nH]c2cccc(O)c12` [Psilocin] was tested, and the EC50 ([1]; agonist, 37 °C, 60 min) was “(E) Psilocin, (F) DMT, (G) 5-MeO-DMT”.

In the case of `COc1cc([N+](=O)[O-])c(OC)cc1CCNCc1ccccc1` [compound 2, 25N-NB], the EMAX [2] is reported as 32 % of 5-HT and the EC50 [3] is reported as 8.3 nM.

In the case of `COc1cc([N+](=O)[O-])c(OC)cc1CCNCc1ccccc1I` [compound 10, 25N-NBI], the pKi [4] is reported as “selectivity for 5-HT2AR over 5-HT2BR and 5-HT2CR in competitive binding studies”.

`COc1cc(CCNCc2cccc3ccccc23)c(OC)cc1C` [compound 26, 25D-N1-Nap] was tested, and the EMAX ([5]; partial agonist) was 34.3 % of 5-HT.

`COc1cc(OC)c(OC)cc1CCNCc1ccccc1OC` [compound 32] was tested, and the EMAX ([5]; agonist) was 99.9 % of 5-HT.

In the case of `COc1cc(OC)c(OC)cc1CCNCc1cccc(I)c1` [compound 34, 25O-NB-3-I], the EMAX ([5]; partial agonist) is reported as 51.7 % of 5-HT.
